The values that follow come from PMC13224050, “Synthesis and characterization of a novel phosphatidylinositol 5-phosphate (PI(5)P) photoaffinity probe” (RSC Chemical Biology, 2026).

The target in one assay is T1, hTAF3 (Homo sapiens, UniProt Q5VWG9).
T1 construct: gene TAF3; purified recombinant, bacterially expressed; abstract prints TAF1 instead
T1 sequence (Q5VWG9 1-929): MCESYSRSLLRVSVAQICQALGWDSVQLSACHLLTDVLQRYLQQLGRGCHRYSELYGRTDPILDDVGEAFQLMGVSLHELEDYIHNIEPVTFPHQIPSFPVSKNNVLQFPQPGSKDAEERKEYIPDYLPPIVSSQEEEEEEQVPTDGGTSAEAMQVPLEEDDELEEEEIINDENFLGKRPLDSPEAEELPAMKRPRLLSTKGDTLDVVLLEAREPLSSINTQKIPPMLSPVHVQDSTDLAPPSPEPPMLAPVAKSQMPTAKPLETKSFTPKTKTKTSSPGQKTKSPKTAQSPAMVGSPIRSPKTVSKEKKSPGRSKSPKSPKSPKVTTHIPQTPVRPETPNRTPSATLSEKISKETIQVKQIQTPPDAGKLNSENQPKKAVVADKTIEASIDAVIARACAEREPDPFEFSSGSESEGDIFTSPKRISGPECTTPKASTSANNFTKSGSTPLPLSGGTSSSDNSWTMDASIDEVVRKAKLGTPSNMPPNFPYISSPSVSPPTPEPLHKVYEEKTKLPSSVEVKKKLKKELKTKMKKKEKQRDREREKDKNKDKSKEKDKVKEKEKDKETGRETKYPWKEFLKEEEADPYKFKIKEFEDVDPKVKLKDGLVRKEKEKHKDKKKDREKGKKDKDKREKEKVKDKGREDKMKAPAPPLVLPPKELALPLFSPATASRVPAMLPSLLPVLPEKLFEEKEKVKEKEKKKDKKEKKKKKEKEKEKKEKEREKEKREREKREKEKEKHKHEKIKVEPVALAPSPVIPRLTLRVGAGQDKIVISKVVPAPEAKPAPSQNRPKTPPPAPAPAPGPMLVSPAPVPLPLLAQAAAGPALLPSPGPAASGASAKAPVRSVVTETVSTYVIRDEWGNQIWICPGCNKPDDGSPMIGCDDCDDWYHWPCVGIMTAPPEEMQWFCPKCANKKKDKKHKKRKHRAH
Kind of assay: photo-crosslinking with TAMRA click SDS-PAGE. The assay is classed as binding. The following applies: covalent; 365 nm 30 min.

Another assay concerns the target T2, hUHRF1 (Homo sapiens, UniProt Q96T88).
T2 construct: gene UHRF1; purified recombinant, bacterially expressed; domains UBL, TTD, PHD, SRA, RING
T2 sequence (Q96T88 1-793): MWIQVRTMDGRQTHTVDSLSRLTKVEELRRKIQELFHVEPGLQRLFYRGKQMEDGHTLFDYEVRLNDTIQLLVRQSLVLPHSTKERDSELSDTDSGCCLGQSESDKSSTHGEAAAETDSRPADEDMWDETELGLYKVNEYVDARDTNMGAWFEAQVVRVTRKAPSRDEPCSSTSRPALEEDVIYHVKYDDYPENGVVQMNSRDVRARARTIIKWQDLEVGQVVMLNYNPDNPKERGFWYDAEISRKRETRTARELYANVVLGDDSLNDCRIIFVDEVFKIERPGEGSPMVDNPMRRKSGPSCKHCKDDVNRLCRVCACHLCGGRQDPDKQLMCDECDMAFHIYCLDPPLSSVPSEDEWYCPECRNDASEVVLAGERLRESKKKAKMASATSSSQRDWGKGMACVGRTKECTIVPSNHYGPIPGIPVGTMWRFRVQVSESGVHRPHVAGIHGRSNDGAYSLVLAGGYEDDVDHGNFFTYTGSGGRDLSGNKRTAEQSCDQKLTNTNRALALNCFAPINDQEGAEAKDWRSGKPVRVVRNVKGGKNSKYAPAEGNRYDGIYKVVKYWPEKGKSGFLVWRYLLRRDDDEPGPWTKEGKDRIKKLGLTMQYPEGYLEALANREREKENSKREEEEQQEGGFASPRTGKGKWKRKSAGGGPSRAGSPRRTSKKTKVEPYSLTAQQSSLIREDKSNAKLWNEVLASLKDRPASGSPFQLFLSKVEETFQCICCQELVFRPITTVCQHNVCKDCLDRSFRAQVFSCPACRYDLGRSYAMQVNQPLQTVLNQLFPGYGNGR
Kind of assay: microscale thermophoresis. The assay is classed as binding.

Each structure is given as a SMILES string. pKd: −log10 of the molar value.

On to `C#CCCCCCCCCCCC1(CCC(=O)O[C@H](COC(=O)CCCCCCCCCCCCCCC)COP(=O)(O)O[C@H]2[C@H](O)[C@@H](OP(=O)(O)O)[C@H](O)[C@@H](O)[C@H]2O)N=N1` [compound 9, PI(5)P diazirine probe], for which the “photo-crosslinking with TAMRA click SDS-PAGE” value on hTAF3 was “confirming that the diazirine probe bound to bacterially expressed recombinant hUHRF1 and hTAF3”. For `CCCCCCCCCCCCCCCC(=O)OC[C@H](COP(=O)(O)O[C@H]1[C@H](O)[C@@H](OP(=O)(O)O)[C@H](O)[C@@H](O)[C@H]1O)OC(=O)CCCCCCCCCCCCCCC` [compound 1, di-C16 : 0 PI(5)P], at hUHRF1, the pKd is roughly 5.07.
